From ChEMBL document CHEMBL1201862, “PubChem BioAssay data set” (2004)
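Where inhibition never reached the appropriate level, the endpoint shown equals the highest concentration tested. Otherwise, values were interpolated linearly from a five-concentration, 48-hour dose response in 96-well plates. GI50 is the concentration that inhibits growth by half.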 The source made the active and inactive calls. Rule as the data show it: active = GI50 up to about 1.1 µM and inactive = higher.

What was measured:
Test in all cases: NCI tumour cell line growth inhibition, 48 h
[1] = test system: OVCAR-3
[2] = test system: SK-OV-3
[3] = test system: MOLT-4
[4] = test system: RXF 631
[5] = test system: SNB-78
[6] = test system: HCC 2998
[7] = test system: UACC-62
[8] = test system: DMS-114
[9] = test system: COLO 205
[10] = test system: ACHN
[11] = test system: Malme-3M
[12] = test system: HCT-15
[13] = test system: K562
[14] = test system: NCI-H226
[15] = test system: UACC-257
[16] = test system: LOX IMVI
[17] = test system: XF498
[18] = test system: NCI-H460
[19] = test system: M14
[20] = test system: SK-MEL-5
[21] = test system: 786-0
[22] = test system: SF-295
[23] = test system: LXFL 529
[24] = test system: SNB-19
[25] = test system: HCT-116
[26] = test system: EKVX
[27] = test system: U-251
[28] = test system: RXF 393
[29] = test system: M19-MEL
[30] = test system: HOP-62
[31] = test system: OVCAR-4
[32] = test system: RPMI-8226
[33] = test system: SNB-75
[34] = test system: HL-60
[35] = test system: CCRF-CEM
[36] = test system: SW-620
[37] = test system: CAKI-1
[38] = test system: HT-29
[39] = test system: DLD-1
[40] = test system: TK-10
[41] = test system: KM-20L2
[42] = test system: HOP-92
[43] = test system: SN12C
[44] = test system: DMS-273
[45] = test system: UO-31
[46] = test system: SK-MEL-28
[47] = test system: A549
[48] = test system: OVCAR-8
[49] = test system: IGROV-1
[50] = test system: KM12
[51] = test system: HOP-18
[52] = test system: SK-MEL-2
[53] = test system: OVCAR-5
[54] = test system: A498
[55] = test system: SF-539
[56] = test system: SR
[57] = test system: NCI-H23
[58] = test system: NCI-H522
[59] = test system: SF-268

Measured: GI50

COC/C=C\COC
inactive: [1] > 100 µM | [2] > 100 µM | [3] > 100 µM | [4] > 100 µM | [5] > 100 µM | [6] > 100 µM | [7] > 100 µM | [8] > 100 µM | [9] > 100 µM | [10] > 100 µM | [11] > 100 µM | [13] > 100 µM | [14] > 100 µM | [15] > 100 µM | [16] > 100 µM | [17] > 100 µM | [18] > 100 µM | [19] > 100 µM | [20] > 100 µM | [21] > 100 µM | [22] > 100 µM | [23] > 100 µM | [24] > 100 µM | [25] > 100 µM | [26] > 100 µM | [27] > 100 µM | [28] > 100 µM | [29] > 100 µM | [30] > 100 µM | [31] > 100 µM | [32] > 100 µM | [33] > 100 µM | [34] > 100 µM | [35] > 100 µM | [36] > 100 µM | [37] > 100 µM | [38] > 100 µM | [39] > 100 µM | [40] > 100 µM | [41] > 100 µM | [42] > 100 µM | [43] > 100 µM | [44] > 100 µM | [45] > 100 µM | [46] > 100 µM | [47] > 100 µM | [48] > 100 µM | [49] > 100 µM | [50] > 100 µM | [51] > 100 µM | [52] > 100 µM | [53] > 100 µM
> 100 µM: [12]

O=C1c2ccccc2NC1(c1ccccc1)c1c(-c2ccccc2)[nH]c2ccccc12 (stereo unspecified)
13.4 µM: [12]
inactive: [1] 21.2 µM | [2] 37.5 µM | [3] 2.91 µM | [4] 9.73 µM | [5] 33.6 µM | [6] 36.6 µM | [7] 45.3 µM | [54] 32.8 µM | [8] 15.3 µM | [9] 6.12 µM | [10] 9.25 µM | [13] 8.32 µM | [55] > 100 µM | [15] 44 µM | [17] 44 µM | [18] 17.5 µM | [19] 22.1 µM | [21] 18.2 µM | [22] 6.34 µM | [23] 20.4 µM | [24] 37.3 µM | [25] 7.28 µM | [26] 35.2 µM | [56] 3.65 µM | [57] 21.4 µM | [27] 14.4 µM | [28] 6.22 µM | [29] 24.3 µM | [30] 67.5 µM | [31] 8.99 µM | [32] 3.88 µM | [33] 24.7 µM | [34] 5.04 µM | [35] 6.3 µM | [36] 51.9 µM | [37] 8.77 µM | [38] 17.9 µM | [39] 9.2 µM | [41] 25.1 µM | [42] 5.35 µM | [43] 14 µM | [44] 6.84 µM | [45] 7.82 µM | [46] 37.5 µM | [47] 3.98 µM | [48] 24.9 µM | [49] 4.41 µM | [50] 10.5 µM | [51] 44.8 µM | [52] 11.9 µM

NCCCN(CCCN)CCCNCc1c2ccccc2c(CNCCCN(CCCN)CCCN)c2ccccc12
inactive: [1] 19 µM | [3] 26.1 µM | [4] 16 µM | [5] 30.8 µM | [6] 4.51 µM | [7] 7.21 µM | [54] 28.2 µM | [9] 8.09 µM | [10] 11.7 µM | [11] 8.07 µM | [13] 9.42 µM | [58] 11.6 µM | [14] 72.1 µM | [55] 14.7 µM | [15] 13.7 µM | [16] 19.1 µM | [17] 17.1 µM | [18] 12 µM | [19] 13.6 µM | [20] 4.6 µM | [21] 11.4 µM | [22] 12.3 µM | [23] 10.5 µM | [24] 14.6 µM | [25] 14.9 µM | [26] 12.8 µM | [56] 35.2 µM | [57] 22.5 µM | [27] 16.7 µM | [28] 21.4 µM | [29] 7.59 µM | [30] 14.4 µM | [31] 17.2 µM | [32] 3.24 µM | [33] 16.5 µM | [34] 11.6 µM | [35] > 100 µM | [36] 13.3 µM | [37] 16.2 µM | [38] 11 µM | [39] 14.7 µM | [40] 10.8 µM | [59] 18.3 µM | [41] 25.2 µM | [42] 24.8 µM | [43] 15.4 µM | [44] 6.08 µM | [45] 29.6 µM | [46] 7.16 µM | [47] 24.3 µM | [48] 12.4 µM | [49] 11.1 µM | [50] 4.37 µM | [51] 6.73 µM | [52] 23.7 µM | [53] 42 µM
14.4 µM: [12]
